Source: US20250241901A1, “ACTIVATION OF MNRR1 / CHCHD2 AS A THERAPEUTIC TARGET FOR MITOCHONDRIA ASSOCIATED DISORDERS” (Wayne State University, priority 2024, published 2025)

How the values were obtained:
TNF transcription = assay: TNF transcript levels in LPS-treated HTR8 cells (real-time PCR); type: cell-based, human
Procedure: (§1) FIGS. 1A-1D. Nitazoxanide's anti-inflammatory effects are via transcriptional activation of MNRR1. (FIG. 1A) Results of a screen of ˜2400 FDA-approved drugs and natural compounds identified to transcriptionally activate (>1), inhibit (<1), or not affect (=1) MNRR1. Each circle represents one drug and the MNRR1 activator (nitazoxanide (N)) has been highlighted in green. (FIG. 1B) Equal numbers of HTR cells overexpressing the MNRR1-luciferase reporter were plated on a 96 well plate and treated with increasing amounts of nitazoxanide or vehicle (DMSO) for 24 h. EC50 was calculated using the activation of MNRR1 reporter relative to vehicle treated cells using the Quest Graph^TM EC50 Calculator. (FIG. 1C) TNF transcript levels were measured in human placental cells. Actin was used as a housekeeping gene for normalization. Abbreviations: WT, MNRR1-WT; MNRR1-KO, knockout of MNRR1; C, control (water); LPS, lipopolysaccharide; N, nitazoxanide; KO+WT-MNRR1, knockout cells +MNRR1−WT overexpression. n=4 biological replicates; significance: *, p-value<0.05; ns is non-significant. […]
Real-time polymerase chain reaction: Total cellular RNA was extracted from mouse placental tissues or HTR8 cells by using a RNeasy Plus Mini Kit (Qiagen, Germantown, MD, USA), according to the manufacturer's instructions. […] Transcript levels were measured by real-time PCR by using SYBR green on an ABI 7500 system. […]

MNRR1 = assay: MNRR1-luciferase reporter assay in HTR cells; type: cell-based; details: Homo sapiens; HTR8 cells, 24 h, relative to vehicle (DMSO); read-out: half-maximal effective concentration (EC50), activation of MNRR1 reporter
Procedure: as §1, with “normalization.” for “normalization. Abbreviations: WT, MNRR1-WT; MNRR1-KO, knockout of MNRR1; C, control (water); LPS, lipopolysaccharide; N, nitazoxanide; KO+WT-MNRR1, knockout cells +MNRR1−WT overexpression. n=4 biological replicates; significance: *, p-value<0.05; ns is non-significant.”
Transfections and luciferase reporter assays: HTR cells were transfected with the indicated plasmids, using TransFast transfection reagent (Promega, Madison, WI, USA) according to the manufacturer's protocol as previously described (Purandare et al., iScience, 25: 105342, 2022). […] EC50 was calculated by using the Quest Graph™ EC50 Calculator (AAT Bioquest, Inc., on the World Wide Web at aatbio.com/tools/ec50-calculator).

[1] = system: MNRR1-promoter driven luciferase reporter; assay: High throughput screen with MNRR1-promoter driven luciferase reporter cell lines; type: cell-based, human; details: list of 2400 FDA-approved drugs, small molecules and natural products
Procedure: Cell lines, culture, and Z′ determination: Stable cell line generation: HEK293 or MDA-MB-468 cells were transfected with pGL4-MNNR1-luciferase, selected with 0.5 μg/mL (for 293) or 1 μg/mL (for 468) puromycin for 2 weeks, and subcloned by limiting dilution. MDA-MB-468-MNRR1-luc and HEK293-MNRR1-luc cells from multiple clones (5000-7500 cells) were plated in 100 μL of complete medium overnight and treated with 10 μM of each compound from the library for 24 h. The medium was aspirated from each well to a volume of 25 μL, and 25 μL Bright Glo (Promega, Madison, WI) luciferase detection reagent was added to each well 10 min prior to luminescent determination with a FlexStation 3 Multimode Microplate Reader (Molecular Devices, San Jose, CA). […] The Z′ factor is a value used to identify strong candidates and can be calculated using a previously described method. […]
MicroSource Spectrum Collection: Despite the low Z′ values for MDA-MB-468-MNRR1-luc and HEK293-MNRR1-luc, pilot screens were performed with both using the MicroSource Spectrum Collection (Gaylordsville, CT). […] For HTS, cells were plated, treated, and measured for luciferase expression as described for clone identification; all HTS compounds were added to a final concentration of 10 μM and MNRR1-luciferase expression was measured after 24 h. […]

CC(=O)Oc1ccccc1C(=O)Nc1ncc([N+](=O)[O-])s1 [nitazoxanide, Nitazoxanide]
LPS-induced activation of TNF transcription (TNF transcription; HTR8 cells, MNRR1-WT): reduced to control levels in an MNRR1-dependent fashion
anti-inflammatory benefit (TNF transcript) in MNRR1 knockout cells (TNF transcription; MNRR1 knockout cells): no nitazoxanide-mediated benefit
EC50 (MNRR1): 115 nM
outcome of screen for MNRR1 activators [1]: identified as an MNRR1 activator
